Structures are written as SMILES. Where “and” joins values, the source holds several entries; their conditions need not be identical. Equal values may be shown once. Toxic doses and inconclusive results are not listed.

These results are taken from PubChem BioAssay AID330 (DTP/NCI, 2004).

The subject of this assay is P388 leukemia ip, CD2F1 mice, survival T/C. The experiment in a line: NCI In Vivo Anticancer Drug Screen. Data for tumor model P388 Leukemia (intraperitoneal) in CD2F1 (CDF1) mice. The following applies: endpoint: median survival time, higher = longer survival. The method in brief: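 Mice carrying the transplanted tumor received test compound or vehicle. Survival was recorded in each group, and the value is the treated-group measurement divided by that of the vehicle-treated control group.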

[1] abbreviates: dose: 25.0 mg/kg/injection, schedule: Q01DX009 (ip), vehicle: saline with Tween-80.
[2] abbreviates: dose: 50.0 mg/kg/injection, schedule: Q01DX009 (ip), vehicle: saline with Tween-80.
Setting [3] is: dose: 100.0 mg/kg/injection, schedule: Q01DX009 (ip), vehicle: saline with Tween-80.
Setting [4] is: dose: 200.0 mg/kg/injection, schedule: Q01DX009 (ip), vehicle: saline with Tween-80.
The mark [5] stands for this setting: dose: 50.0 mg/kg/injection, schedule: Q04DX002 (ip), vehicle: saline with Tween-80.
The mark [6] stands for this setting: dose: 25.0 mg/kg/injection, schedule: Q01DX005 (ip), vehicle: saline with Tween-80.
[7] abbreviates: dose: 50.0 mg/kg/injection, schedule: Q01DX005 (ip), vehicle: saline with Tween-80.
Setting [8] is: dose: 100.0 mg/kg/injection, schedule: Q01DX005 (ip), vehicle: saline with Tween-80.

In the case of `CO[C@H]1/C=C/O[C@@]2(C)Oc3c(C)c(O)c4c(O)c(c(/C=N/N5CCN(C)CC5)c(O)c4c3C2=O)NC(=O)/C(C)=C\C=C\[C@H](C)[C@H](O)[C@@H](C)[C@@H](O)[C@@H](C)[C@H](OC(C)=O)[C@@H]1C`, the T/C is 92 % of control (dose: 25.0 mg/kg/injection, schedule: Q01DX009 (ip), vehicle: other); 100 % of control under setting [1]; 106 % of control (dose: 25.0 mg/kg/injection, schedule: Q04DX003 (ip), vehicle: distilled water + Tween-80); 99 % of control and 97 % of control (dose: 25.0 mg/kg/injection, schedule: Q04DX003 (ip), vehicle: other); 98 % of control (dose: 50.0 mg/kg/injection, schedule: Q01DX009 (ip), vehicle: other); 100 % of control under setting [2]. Further, the T/C is 105 % of control and 110 % of control (dose: 50.0 mg/kg/injection, schedule: Q04DX003 (ip), vehicle: distilled water + Tween-80); 106 % of control and 109 % of control (dose: 50.0 mg/kg/injection, schedule: Q04DX003 (ip), vehicle: other); 89 % of control (dose: 100.0 mg/kg/injection, schedule: Q01DX009 (ip), vehicle: other); 100 % of control under setting [3]; 96 % of control and 97 % of control (dose: 100.0 mg/kg/injection, schedule: Q04DX003 (ip), vehicle: distilled water + Tween-80); 107 % of control and 115 % of control (dose: 100.0 mg/kg/injection, schedule: Q04DX003 (ip), vehicle: other). Further, the T/C reads like this: (dose: 100.0 mg/kg/injection, schedule: Q04DX003 (ip), vehicle: saline sonified) 95 % of control; (dose: 200.0 mg/kg/injection, schedule: Q01DX009 (ip), vehicle: other) 107 % of control; (dose: 200.0 mg/kg/injection, schedule: Q04DX003 (ip), vehicle: distilled water + Tween-80) 106 % of control; (dose: 200.0 mg/kg/injection, schedule: Q04DX003 (ip), vehicle: other) 110 % of control; (dose: 200.0 mg/kg/injection, schedule: Q04DX003 (ip), vehicle: saline sonified) 104 % of control; (dose: 400.0 mg/kg/injection, schedule: Q04DX003 (ip), vehicle: distilled water + Tween-80) 103 % of control. Moreover, under “dose: 400.0 mg/kg/injection, schedule: Q04DX003 (ip), vehicle: saline sonified”, the T/C is 109 % of control.
With `CCOC(=O)C1=C(C)NC(C)=C(C(=O)OCC)C1c1ccc(Cl)cc1`, the T/C is 88 % of control under setting [2]; 94 % of control under setting [3]; 95 % of control under setting [4]; 93 % of control (dose: 400.0 mg/kg/injection, schedule: Q01DX009 (ip), vehicle: saline with Tween-80).
In the case of `Fc1cccc(-c2nn[nH]n2)c1`, the T/C (dose: 100.0 mg/kg/injection, schedule: Q04DX002 (ip), vehicle: saline with Tween-80) is 102 % of control; the T/C (dose: 200.0 mg/kg/injection, schedule: Q04DX002 (ip), vehicle: saline with Tween-80) was 107 % of control; the T/C (dose: 400.0 mg/kg/injection, schedule: Q04DX002 (ip), vehicle: saline with Tween-80) is 116 % of control.
For `Cc1cccnc1NC1OC(=O)c2ccccc21` (stereo not drawn), the T/C reads like this: under setting [2], 100 % of control; under setting [3], 96 % of control.
For `COC1=C(OC)C(=O)C(SCCCc2ccccc2)=CC1=O`, the T/C is 114 % of control (dose: 12.5 mg/kg/injection, schedule: Q04DX002 (ip), vehicle: saline with Tween-80); 112 % of control (dose: 25.0 mg/kg/injection, schedule: Q04DX002 (ip), vehicle: saline with Tween-80); 122 % of control under setting [5].
`NC(CC(=O)O)C(=O)OCc1cccc(N=Nc2ccccc2)c1` (stereo not drawn): the T/C was 99 % of control (dose: 50.0 mg/kg/injection, schedule: Q04DX003 (ip), vehicle: saline with Tween-80); 90 % of control (dose: 100.0 mg/kg/injection, schedule: Q04DX003 (ip), vehicle: saline with Tween-80); 93 % of control (dose: 200.0 mg/kg/injection, schedule: Q04DX003 (ip), vehicle: saline with Tween-80).
Take `COc1cc(C)c2c(=O)c3c(oc2c1)C(=O)c1c(O)c(OC)cc(O)c1C3=O`: the T/C is 115 % of control (dose: 12.5 mg/kg/injection, schedule: Q01DX009 (ip), vehicle: saline with Tween-80); 108 % of control under setting [1]; 114 % of control under setting [2]; 115 % of control under setting [3]; 103 % of control under setting [4].
For `O=C1C2CCCC1C(c1ccc(Cl)cc1)NC2c1ccc(Cl)cc1` (stereo not drawn), the T/C (dose: 100.0 mg/kg/injection, schedule: Q04DX003 (ip), vehicle: saline) was 103 % of control; the T/C (dose: 200.0 mg/kg/injection, schedule: Q04DX003 (ip), vehicle: saline) was 103 % of control; the T/C (dose: 400.0 mg/kg/injection, schedule: Q04DX003 (ip), vehicle: saline) is 96 % of control.
In the case of `CN1N(C)P(=S)(Oc2ccccc2)N(C)N(C)P1(=S)Oc1ccccc1` (stereo not drawn), the T/C is 98 % of control (dose: 60.0 mg/kg/injection, schedule: Q01DX005 (ip), vehicle: Klucel (hydroxypropylcellulose) (HPC)); 98 % of control (dose: 120.0 mg/kg/injection, schedule: Q01DX005 (ip), vehicle: Klucel (hydroxypropylcellulose) (HPC)); 93 % of control (dose: 240.0 mg/kg/injection, schedule: Q01DX005 (ip), vehicle: Klucel (hydroxypropylcellulose) (HPC)).
With `CC1=CCC(C)C(C)(C)C1CC/C(C)=C/CCC1(C)C(CCCO)/C(=C(\C)C=O)CCC1(C)O` (stereo not drawn), the T/C (dose: 4.5 mg/kg/injection, schedule: Q01DX005 (ip), vehicle: Klucel (hydroxypropylcellulose) (HPC)) was 152 % of control.
On to `CCOC(=O)/C(C#N)=C/Nc1[nH]c(=O)c(C#N)c(-c2ccc(Cl)cc2)c1SC`, for which the T/C was 110 % of control (dose: 60.0 mg/kg/injection, schedule: Q01DX005 (ip), vehicle: saline with Tween-80); 100 % of control (dose: 120.0 mg/kg/injection, schedule: Q01DX005 (ip), vehicle: saline with Tween-80); 108 % of control (dose: 240.0 mg/kg/injection, schedule: Q01DX005 (ip), vehicle: saline with Tween-80).
Regarding `C/C(=C\c1ccccc1)C(=O)C(CN(C)C)CN(C)C`, the T/C is 111 % of control (dose: 1.87 mg/kg/injection, schedule: Q01DX005 (ip), vehicle: saline); 113 % of control (dose: 3.75 mg/kg/injection, schedule: Q01DX005 (ip), vehicle: saline); 100 % of control and 113 % of control (dose: 7.5 mg/kg/injection, schedule: Q01DX005 (ip), vehicle: saline).
With `CC12CC3(C)CC(C)(C1)CC(C(Cl)C(=O)O)(C2)C3` (stereo not drawn), the T/C was 98 % of control (dose: 25.0 mg/kg/injection, schedule: Q01DX009 (ip), vehicle: suspension in saline) and 100 % of control (dose: 50.0 mg/kg/injection, schedule: Q01DX009 (ip), vehicle: suspension in saline).
For `O=C1N=NC2=C1c1c3ccccc3c(O)n1CC2`, the T/C under setting [6] was 99 % of control, the T/C under setting [7] is 101 % of control and the T/C under setting [8] is 95 % of control.
As to `O=C(O)C(=O)O.O=N[O-].[Co+3].[NH-]CC[N-]CC[NH-]`, the T/C was 108 % of control under setting [1] and 108 % of control under setting [2].
With `S=C1N(c2ccc(Br)cc2)C2=Nc3ccccc3SC(=C2N=Nc2ccccc2)N1c1ccc(Cl)cc1`, the T/C is 94 % of control under setting [7]; 90 % of control under setting [8]; 93 % of control (dose: 200.0 mg/kg/injection, schedule: Q01DX005 (ip), vehicle: saline with Tween-80).
For `CC(C)c1cccc(C2(C)C(=O)c3ccccc3C2=O)c1`, the T/C runs as follows: (dose: 100.0 mg/kg/injection, schedule: Q04DX002 (ip), vehicle: saline) 99 % of control; (dose: 200.0 mg/kg/injection, schedule: Q04DX002 (ip), vehicle: saline) 102 % of control; (dose: 400.0 mg/kg/injection, schedule: Q04DX002 (ip), vehicle: saline) 100 % of control.
As to `O=S(=O)(N=N/C=C1\C=CC=CN1O)c1cccs1`, the T/C by setting is: under setting [5], 100 % of control; (dose: 600.0 mg/kg/injection, schedule: Q04DX002 (ip), vehicle: saline with Tween-80) 117 % of control.
With `C/C(=N\NC(=O)c1ccncc1)c1cccc(/C(C)=N/NC(=O)c2ccncc2)n1.CC(=O)[O-].CC(=O)[O-].[Zn+2]`, the T/C by setting is: (dose: 12.5 mg/kg/injection, schedule: Q01DX005 (ip), vehicle: saline with Tween-80) 110 % of control; under setting [6], 104 % of control; under setting [7], 88 % of control and 93 % of control.
Consider `CC(C)N1CCSC1=S`, for which the T/C is 104 % of control under setting [2], 90 % of control under setting [3] and 100 % of control under setting [4].
